One experiment relates to cancer cells. The experiment in a line: Apoptosis, Annexin V flow cytometry. The format is cell-based. The conditions noted are these: for induction of apoptosis: at 30 μM. Here is the method: Cells (5×10^4) were seeded 24 hours before compound treatment. Compound was added to the culture media and cells were cultured with the compound for 48 hours. The treated cells were then transferred into 5 ml flow cytometry tubes and the well was washed once with PBS to collect any remaining cells. The cells were then pelleted at 500×g for 5 min with a Beckman CS-6KR centrifuge at 4° C. After removal of supernatant, the cells pellet was washed with Annexin V binding buffer (10 mM Hepes-NaOH, pH 7.4, 150 mM NaCl, 5 mM KCl, 1 mM MgCl2, and 1.8 mM CaCl2). Cells were pelleted once again and incubated in the dark with Annexin V-FITC (2 μg/ml) in binding buffer for 5 min then analyzed using LSRFortessa flow cytometer (BD).
In general terms: Flow cytometry measures light scatter and fluorescence of single cells or particles in a stream.

The next experiment deals with ROC1-CUL4A (Homo sapiens (Human), UniProt Q13619). The experiment in a line: 32P-Ub chain elongation by ROC1-CUL4A. The conditions noted are these: relative to KH-4-43. Also noted: concentration or dose not given beside the values. The experiment is classed as biochemical. Here is the method: (§1) The reaction was incubated for 5 min at 37° C. […] The reaction was incubated for 5 min at room temperature. In the second step (chase), the completed Cdc34b-Ub thiol ester reaction mixture was combined with one third of the completed mono-ubiquitination mixture. The final volume was adjusted to 10 μl with a mix that contained 50 mM Tris-HCl (pH 7.4), 0.5 mM DTT, 0.1 mg/ml of BSA, 5 mM MgCl2, and 2 mM ATP. Compounds were added where indicated. The chase reaction was incubated for 10 min at 37° C. The reaction products were separated by 4-20% SDS-polyacrylamide gel electrophoresis. The reaction scheme was identical to the one described above for FIGS. 12A-B. […] The reaction products, separated by SDS-PAGE, were visualized and analyzed by phospho-imaging using Typhoon 9500 scanner.
Chain of ROC1-CUL4A (Q13619 39-759): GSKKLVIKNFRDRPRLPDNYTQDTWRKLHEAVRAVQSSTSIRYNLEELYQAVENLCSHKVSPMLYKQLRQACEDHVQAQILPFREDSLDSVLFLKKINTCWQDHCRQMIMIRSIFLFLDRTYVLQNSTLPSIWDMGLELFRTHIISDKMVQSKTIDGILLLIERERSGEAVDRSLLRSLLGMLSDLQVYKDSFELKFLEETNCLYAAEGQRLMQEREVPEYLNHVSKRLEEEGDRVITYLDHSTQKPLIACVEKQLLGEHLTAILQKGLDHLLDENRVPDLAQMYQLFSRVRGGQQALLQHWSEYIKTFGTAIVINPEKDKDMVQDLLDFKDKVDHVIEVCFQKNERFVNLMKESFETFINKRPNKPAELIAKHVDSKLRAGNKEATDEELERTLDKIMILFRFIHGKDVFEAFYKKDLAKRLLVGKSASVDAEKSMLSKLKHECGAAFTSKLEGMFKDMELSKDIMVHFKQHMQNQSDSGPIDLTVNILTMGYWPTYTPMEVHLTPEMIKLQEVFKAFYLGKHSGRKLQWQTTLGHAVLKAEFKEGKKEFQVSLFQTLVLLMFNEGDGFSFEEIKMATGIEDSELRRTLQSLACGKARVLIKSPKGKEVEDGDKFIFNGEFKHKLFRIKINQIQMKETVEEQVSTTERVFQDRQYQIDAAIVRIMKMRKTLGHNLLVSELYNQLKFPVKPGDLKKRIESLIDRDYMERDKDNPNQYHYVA
Chain of ROC1-CUL4A (P62877 15-108 partner): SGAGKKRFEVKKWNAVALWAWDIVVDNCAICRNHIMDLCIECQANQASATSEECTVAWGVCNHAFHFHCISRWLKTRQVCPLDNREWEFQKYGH

For the next experiment, the target named is ROC1-CUL4A (full length) (Homo sapiens (Human), UniProt Q13619). Nature of the experiment: Ligand binding by MST. As to conditions: for Kd: read-out: E3 binding ROC1-CUL4A Kd. The protocol: (§2) E3 ligase complex (˜2 nmol) was labeled with fluorescent dye using Monolith NT Protein Labeling Kit Red-NHS (Nanotemper) in the presence of 20 mM MES pH 6.0 and 150 mM NaCl. Excess dye was removed using the included gravity flow column and eluted in storage buffer containing 20 mM Tris-HCl, pH 7.4, 150 mM NaCl, and 10% glycerol. The fluorescent E3 complex (˜0.01-0.06 μM) was mixed with increasing amount of compound in a buffer (20 μl) that contains phosphate-buffered saline, 0.1% TWEEN-20 and 2% prionex. Following incubation at room temperature for 30 min, the reaction mixture loaded into premium coated capillaries and analyzed in the Monolith NT.115 machine (Nanotemper). Thermophoresis was recorded for each sample and binding curve was generated and Kd was calculated using the included software. For reactions where significant ligand specific fluorescence quenching occurred (verified by manufacturer's SDS Denaturation-test protocol), the initial fluorescence quenching data was used directly to calculate the binding curve and Kd.
Chain of ROC1-CUL4A (full length) (Q13619 39-759): as the sequence (Q13619 39-759) above
Chain of ROC1-CUL4A (full length) (P62877 15-108 partner): as the sequence (P62877 15-108 partner) above

Experiment [1] addresses T1, ROC1-CUL1 CTD (Homo sapiens (Human), UniProt Q13616). Nature of the experiment: FRET K48 di-Ub synthesis assay. The experiment is classed as biochemical. The conditions noted are these: for E3 inhibition: up to 80 μM. Here is the method: The high throughput screen (“HTS”) employed the FRET K48 di-Ub assay as established previously (Wu et al., “Suramin Inhibits Cullin-RING E3 Ubiquitin Ligases,” PNAS 113(14):E2011-2018 (2016), which is hereby incorporated by reference in its entirety) and was carried out at Memorial Sloan Kettering Cancer Center Core Screening Facility. For HTS, the assay was formatted using three reagent addition steps. Library compounds, stored in 10 mM stock plates (DMSO), were transferred into assay plates and each well contains a single compound at 100 μM in 1 μl 10% DMSO. The complete complement of proteins/enzymes (6.5 μl), containing Ub E1 (14 nM), E2 Cdc34 (124 nM), E3 ROC1-CUL1 CTD (0.2 μM), Ub C31-I555 (donor, 0.93 μM), and Ub C64-I647 (receptor, 1.62 μM), in the presence of 33 mM Tris-HCl (pH 7.4), 1.7 mM MgCl2, 0.33 mM DTT, and BSA (0.07 mg/ml), was added to each plate. The concentrations of all five proteins have been determined based on Km measurement as described previously (Wu et al., “Suramin Inhibits Cullin-RING E3 Ubiquitin Ligases,” PNAS 113(14):E2011-2018 (2016), which is hereby incorporated by reference in its entirety). To initiate ubiquitination, ATP (2.5 μl in 2.64 mM) was added and its final concentration was 0.66 mM. The concentration of ATP was set high to minimize identification of nucleotide analogues because the priority of the HTS is to find small molecule modulators specific for E3 ROC1-CUL1 CTD. In this setting, the concentration of compound and DMSO in a given well were 10 μM and 1%, respectively. After incubation at room temperature for 45 min, EDTA (30 mM) was added to terminate the reaction. The reaction was quantified based on the ratio of acceptor:donor fluorescence (excitation 515 nm; donor emission 570 nm; acceptor emission 670 nm) using a Victor high-throughput plate reader (Perkin Elmer).
(§3) The reaction mixture (15 μl) was assembled onto a 384-well microtiter plate. […] ATP (0.66 mM) was then added to the mix followed by a brief centrifugation to settle down the mixture. The resulting plate was incubated at 30° C. in the Synergy-H1 reader and the fluorescence signal was monitored. Ubiquitination was quantified based on the ratio of acceptor:donor fluorescence (excitation 515 nm; donor emission 570 nm, acceptor emission 670 nm).

Experiment [2] concerns the target T1, ROC1-CUL1 CTD. The experiment in a line: Ligand binding by MST. The protocol: as §2
For another experiment, the target named is E3 (CUL1) (Homo sapiens (Human), UniProt Q13616). The experiment in a line: E3 (CUL1) inhibition (Table 1). The format is biochemical. The protocol: as §3
Chain of E3 (CUL1) (Q13616 whole entry): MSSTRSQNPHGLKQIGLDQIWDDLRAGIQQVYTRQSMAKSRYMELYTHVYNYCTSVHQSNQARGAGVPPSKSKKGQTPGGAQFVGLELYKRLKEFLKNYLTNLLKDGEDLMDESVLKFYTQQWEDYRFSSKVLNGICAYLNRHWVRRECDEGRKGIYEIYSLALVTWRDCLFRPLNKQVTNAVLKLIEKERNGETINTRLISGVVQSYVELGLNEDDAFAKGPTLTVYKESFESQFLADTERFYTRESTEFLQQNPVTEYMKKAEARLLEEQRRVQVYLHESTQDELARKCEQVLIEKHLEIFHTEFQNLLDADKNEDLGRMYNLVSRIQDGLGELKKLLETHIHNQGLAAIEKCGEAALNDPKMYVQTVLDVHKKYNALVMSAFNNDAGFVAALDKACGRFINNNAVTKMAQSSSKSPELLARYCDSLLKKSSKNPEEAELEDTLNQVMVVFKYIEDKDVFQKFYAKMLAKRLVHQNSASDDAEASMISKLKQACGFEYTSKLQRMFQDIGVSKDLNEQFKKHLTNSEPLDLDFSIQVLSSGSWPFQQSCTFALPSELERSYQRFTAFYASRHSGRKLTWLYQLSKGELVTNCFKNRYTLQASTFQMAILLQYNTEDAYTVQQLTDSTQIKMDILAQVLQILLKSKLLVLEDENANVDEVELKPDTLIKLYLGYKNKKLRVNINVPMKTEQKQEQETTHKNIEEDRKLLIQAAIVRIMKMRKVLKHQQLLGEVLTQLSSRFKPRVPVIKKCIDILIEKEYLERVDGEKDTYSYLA
Chain of E3 (CUL1) (P62877 whole entry partner): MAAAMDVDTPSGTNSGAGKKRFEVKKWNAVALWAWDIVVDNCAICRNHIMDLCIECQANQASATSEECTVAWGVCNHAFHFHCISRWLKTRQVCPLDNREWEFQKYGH
The target in the next experiment is E3 (CUL4) (Homo sapiens (Human), UniProt Q13619). The experiment in a line: E3 (CUL4) inhibition (Table 1). The format is biochemical. Here is the method:
as §1

The subject of the next experiment is MV4-11 tumors. Nature of the experiment: AML MV4-11 subcutaneous xenograft. The conditions noted are these: G5, 3 mg/kg, QD, PO.
The mark [3] stands for this setting: Table 5, MST, read-out: E3 binding Kd.
Where [4] appears, read: Table 9, read-out: IC50 (FRET CUL1 assay).
[5] abbreviates: Table 9, read-out: E3 Binding Kd (MST with CUL1 CTD).

Molecules are shown by their SMILES. Like-named read-outs stand apart in the source and are kept apart here.

T1 sequence (Q13616 411-776): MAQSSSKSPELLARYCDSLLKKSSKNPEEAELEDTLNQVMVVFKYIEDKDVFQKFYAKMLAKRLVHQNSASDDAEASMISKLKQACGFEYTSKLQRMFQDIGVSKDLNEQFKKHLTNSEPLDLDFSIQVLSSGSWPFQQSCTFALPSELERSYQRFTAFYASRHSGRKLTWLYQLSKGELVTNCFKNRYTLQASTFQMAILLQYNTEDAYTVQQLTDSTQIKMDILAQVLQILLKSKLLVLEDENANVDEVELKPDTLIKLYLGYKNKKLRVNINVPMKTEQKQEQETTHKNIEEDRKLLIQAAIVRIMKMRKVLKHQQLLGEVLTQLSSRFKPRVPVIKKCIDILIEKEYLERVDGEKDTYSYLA
T1 sequence (P62877 whole entry partner): as the sequence (P62877 whole entry partner) above
Chain of E3 (CUL4) (Q13619 whole entry): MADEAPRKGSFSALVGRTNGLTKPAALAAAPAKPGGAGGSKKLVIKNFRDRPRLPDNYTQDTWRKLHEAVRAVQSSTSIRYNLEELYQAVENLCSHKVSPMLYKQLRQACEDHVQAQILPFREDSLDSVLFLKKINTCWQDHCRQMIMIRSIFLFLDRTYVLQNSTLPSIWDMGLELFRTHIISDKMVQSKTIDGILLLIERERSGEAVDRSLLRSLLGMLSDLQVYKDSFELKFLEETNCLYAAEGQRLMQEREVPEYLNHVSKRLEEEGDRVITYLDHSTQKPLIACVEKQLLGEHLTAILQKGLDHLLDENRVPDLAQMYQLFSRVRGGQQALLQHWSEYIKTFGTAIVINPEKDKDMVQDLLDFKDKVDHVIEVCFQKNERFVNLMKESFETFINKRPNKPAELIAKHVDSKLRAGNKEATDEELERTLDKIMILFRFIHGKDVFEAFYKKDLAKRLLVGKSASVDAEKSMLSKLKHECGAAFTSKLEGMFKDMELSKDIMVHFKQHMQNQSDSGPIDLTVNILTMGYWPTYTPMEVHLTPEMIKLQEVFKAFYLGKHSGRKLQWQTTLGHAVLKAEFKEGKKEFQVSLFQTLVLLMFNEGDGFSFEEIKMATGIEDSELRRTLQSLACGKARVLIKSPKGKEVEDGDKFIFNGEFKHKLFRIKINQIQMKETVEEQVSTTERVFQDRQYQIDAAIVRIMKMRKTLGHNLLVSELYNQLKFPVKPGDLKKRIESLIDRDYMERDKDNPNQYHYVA
Chain of E3 (CUL4) (P62877 whole entry partner): as the sequence (P62877 whole entry partner) above

As for `CCn1cc(-c2c(C(F)(F)F)oc3c(O)c(O)ccc3c2=O)cn1` [MM-009], it took 66 µM to reach a half-maximal effect with cancer cells (Table 6) (EC50). For the same compound, the “E3 CRL4 Relative Inhibition” value at ROC1-CUL4A is reported as 0%. The equilibrium dissociation constant (Kd) at ROC1-CUL4A (full length) is more than 400 µM.
Turning to `O=c1c(Oc2ccccc2)c(C(F)(F)F)oc2c3c(ccc12)OCCO3` [#33-5, 8-phenoxy-9-(trifluoromethyl)-2,3-dihydro-7H-[1,4]dioxino[2,3-h]chromen-7-one], the “E3 inhibition IC50” value at ROC1-CUL1 CTD [1] (Table 5) was “No inhibition”. In addition, the E3 inhibition entry on ROC1-CUL1 CTD [1] is recorded as “No inhibition”. Moreover, the Kd at ROC1-CUL1 CTD [2] (setting [3]) amounted to 48 µM.
For the compound `O=c1c(Oc2ccc(Br)cc2)c(C(F)(F)F)oc2c(O)c(O)c(Br)cc12`, on ROC1-CUL1 CTD [1] (setting [4]), the IC50 worked out at 8.3 µM. At ROC1-CUL1 CTD [2] (setting [5]), the Kd turned out to be 1.19 ± 0.36 µM.
In the same order, the values of `O=c1c(Oc2ccccc2)c(C(F)(F)F)oc2c(O)c(O)c(Br)cc12` [drawing 256] are 3.1 µM and 1.89 ± 0.96 µM.
Consider `COc1ccc2c(=O)c(Oc3ccccc3)c(C)oc2c1OC` [#33-3, 7,8-dimethoxy-2-methyl-3-phenoxy-4H-chromen-4-one], for which the “E3 inhibition IC50” value on ROC1-CUL1 CTD [1] (Table 5) was “No inhibition”. Besides, the E3 inhibition result on ROC1-CUL1 CTD [1] was “No inhibition”. In addition, the Kd at ROC1-CUL1 CTD [2] (setting [3]) was more than 500 µM.
Consider `COc1ccc2c(=O)c(-c3cnn(-c4ccc(F)cc4)c3)c(C(F)(F)F)oc2c1OC` [KH-3-141], for which the “Apoptosis EC50” value in the experiment with cancer cells (Table 1) and in the experiment with cancer cells (Table 6) was “Inactive” in each case. In the experiment on cancer cells, the induction of apoptosis result is listed as “unable to induce any detectable level of apoptosis”. Further, the “E3 (CUL1) Inhibition EC50” value at E3 (CUL1) is “Inactive”. Moreover, on ROC1-CUL4A, the “E3 CRL4 Relative Inhibition” value was 0%. The “E3 (CUL4) Inhibition EC50” value at E3 (CUL4) is “Inactive”. Also, the “E3 binding ROC1-CUL4A Kd” value on ROC1-CUL4A (full length) is reported as “No detectable binding”.
Turning to `COc1c(O)ccc2c(=O)c(-c3cnn(-c4ccccc4)c3)c(C(F)(F)F)oc12` [KH-4-119], the “Apoptosis EC50” value in the experiment with cancer cells (Table 1) and with cancer cells (Table 6) was “Inactive” in each case. The induction of apoptosis entry in the experiment with cancer cells was “unable to induce any detectable level of apoptosis”. At ROC1-CUL4A, the “E3 CRL4 Relative Inhibition” value is 13%. Further, the “E3 (CUL4) Inhibition EC50” value at E3 (CUL4) was “Inactive”. Besides, the “E3 binding ROC1-CUL4A Kd” value at ROC1-CUL4A (full length) is reported as “no detectable binding activity”.
For `O=c1c(Oc2cccc(Br)c2)c(C(F)(F)F)oc2c(O)c(O)ccc12`, the IC50 on ROC1-CUL1 CTD [1] (setting [4]) came to 2.4 µM. Further, the Kd at ROC1-CUL1 CTD [2] (setting [5]) worked out at 1.9 ± 0.28 µM.
`CCCCn1cc(-c2c(C(F)(F)F)oc3c(O)c(O)ccc3c2=O)cn1` [MM-007]: it took 28 µM to reach a half-maximal effect in the experiment on cancer cells (Table 6) (EC50). Also, the “E3 CRL4 Relative Inhibition” value at ROC1-CUL4A is reported as 2%. In addition, on ROC1-CUL4A (full length), the Kd was 38 µM.
With `CNC(=O)c1cc(Oc2ccc(NC(=O)Nc3ccc(Cl)c(C(F)(F)F)c3)cc2)ccn1` [Sorafenib, reference compound], in the experiment on MV4-11 tumors, the tumor inhibition value is listed as 46.02%.
For `O=c1c(Oc2ccccc2)c(C(F)(F)F)oc2c3c(ccc12)OCO3` [Compound 33-4, 7-phenoxy-8-(trifluoromethyl)-6H-[1,3]dioxolo[4,5-h]chromen-6-one], at ROC1-CUL1 CTD [1] (Table 5, read-out: E3 inhibition IC50), the IC50 was 80 µM. In addition, on ROC1-CUL1 CTD [2] (setting [3]), the Kd is 19 µM.
With `CCCn1cc(-c2c(C(F)(F)F)oc3c(O)c(O)ccc3c2=O)cn1` [MM-008], a half-maximal response in the experiment on cancer cells (Table 6) (EC50) required 38 µM. The “E3 CRL4 Relative Inhibition” value at ROC1-CUL4A amounted to 0%. Further, at ROC1-CUL4A (full length), the Kd was 26.4 µM.
Regarding `O=c1c(Oc2ccccc2Br)c(C(F)(F)F)oc2c(O)c(O)ccc12`, the 50% inhibitory concentration (IC50) on ROC1-CUL1 CTD [1] (setting [4]) stood at 2.7 µM. Moreover, the dissociation constant (Kd) at ROC1-CUL1 CTD [2] (setting [5]) is 1.95 ± 0.44 µM.
In the same order, the values of `O=c1c(Oc2ccc(Br)cc2)c(C(F)(F)F)oc2c(O)c(O)ccc12` are 3.5 µM and 1.42 ± 0.26 µM.
As for `O=c1c(Oc2ccccc2)c(C(F)(F)F)oc2cc(O)ccc12` [#33-7, 7-hydroxy-3-phenoxy-2-(trifluoromethyl)-4H-chromen-4-one], the “E3 inhibition IC50” value on ROC1-CUL1 CTD [1] (Table 5) was “No inhibition”. Moreover, the E3 inhibition entry at ROC1-CUL1 CTD [1] was “No inhibition”. The “reduction of binding Kd relative to #33” value on ROC1-CUL1 CTD [2] is recorded as more than 30 fold. In addition, the dissociation constant (Kd) at ROC1-CUL1 CTD [2] (setting [3]) came out at 57 µM.

For orientation: EC50 means the concentration that produces a half-maximal response. As usually defined, the Kd is the concentration at which binding is half-saturated. As usually defined, the IC50 is the concentration that inhibits the measured activity by half.

These data come from patent publication US20240174649A1, “CULLIN-RING E3 UBIQUITIN LIGASE 4 INHIBITOR COMPOUNDS AND METHODS OF THEIR USE” (ICAHN SCHOOL OF MEDICINE AT MOUNT SINAI, priority 2021, published 2024).
